Assay results published in US9387204B2, “Fused bicyclic imidazoles” (BAYER INTELLECTUAL PROPERTY GmbH, priority 2007, dated 2016).

Tested on: A549 cells
Assay: Cellular proliferation/cytotoxicity assay (Alamar Blue), A549 cells
Details: Homo sapiens, A549, 72 h, read-out: Anti-proliferative/Cytotoxic activity (A549 cells)
Description: The anti-proliferative activity of the compounds as described herein, is evaluated using the OvCAR3, HCT116 and A549 cell lines and the Alamar Blue (Resazurin) cell viability assay (O'Brien et al. Eur J Biochem 267, 5421-5426, 2000). Resazurin is reduced to the fluorescent resorufin by cellular dehydrogenase activity, correlating with viable, proliferating cells. Test compounds are dissolved as 10 mM solutions in DMSO and subsequently diluted. Cells like HCT116 or A549 cells were seeded into 96 well flat bottom plates at a density of 10000 cells/well (OvCAR3 cells), 1000 cells/well (HCT116 cells) or 2000 cells/well (A549 cells) in a volume of 200 μl/well. 24 hours after seeding, 1 μl each of the compound dilutions are added into each well of the 96 well plates. Each compound dilution is tested as at least as duplicates. Wells containing untreated control cells were filled with 200 μl DMEM (Dulbecco's Modified Eagle Medium) containing 0.5 vol % v:v DMSO. The cells are then incubated with the substances for 72 h at 37° C. in a humidified atmosphere containing 5 vol % CO2. To determine the viability of the cells, 20 μl of a Resazurin solution (90 mg/l) are added. After 4 h incubation at 37° C., the fluorescence is measured by extinction at ? =544 nm and an emission of ? =590 nm (Wallac Victor2; Perkin Elmer, USA). For the calculation of the cell viability, the emission value from untreated cells is set as 100% viability and the fluorescence intensity of treated cells are set in relation to the values of untreated cells. Viabilities are expressed as % values. The corresponding IC50 values of the compounds for cytotoxic activity are determined from the concentration-effect curves by means of non-linear regression. The analysis of the data is performed using a biostatistical program (Graph Pad Prism, USA).

**Q.** `Clc1ccn2c(-c3ccccc3)c(-c3ccc(CN4CCC(c5nnc(-c6ccccn6)[nH]5)CC4)cc3)nc2c1` [Example 54, 7-chloro-3-phenyl-2-(4-{[4-(5-pyridin-2-yl-4H-1,2,4-triazol-3-yl)piperidin-1-yl]methyl}phenyl)imidazo[1,2-a]pyridine] was tested. Which IC50 did it give?
**A.** < 10 µM

**Q.** Which IC50 does the source give for `FC(F)(F)c1nn2c(-c3ccccc3)c(-c3ccc(CN4CCC(c5nnc(-c6ccccn6)[nH]5)CC4)cc3)nc2s1` [Example 48, 5-phenyl-6-[4-({4-[5-(pyridin-2-yl)-4H-1,2,4-triazol-3-yl]piperidin-1-yl}methyl)phenyl]-2-(trifluoromethyl)imidazo[2,1-b][1,3,4]thiadiazole] here?
**A.** > 10 µM

**Q.** For `Clc1nccn2c(-c3ccccc3)c(-c3ccc(CN4CCC(c5n[nH]c(-c6ccccn6)n5)CC4)cc3)nc12` [Example 26, 8-chloro-3-phenyl-2-(4-{[4-(5-pyridin-2-yl-1,2,4-triazol-3-yl)piperidin-1-yl]methyl}phenyl)imidazo[1,2-a]pyrazine], which IC50 is on record?
**A.** > 10 µM

**Q.** Which IC50 does the source give for `Brc1cccn2c(-c3ccccc3)c(-c3ccc(CN4CCC(c5n[nH]c(-c6ccccn6)n5)CC4)cc3)nc12` [Example 25, 8-bromo-3-phenyl-2-(4-{[4-(5-pyridin-2-yl-1,2,4-triazol-3-yl)piperidin-1-yl]methyl}phenyl)imidazo[1,2-a]pyridine] here?
**A.** < 10 µM

**Q.** How did the IC50 turn out when `CCc1nn2c(-c3ccccc3)c(-c3ccc(CN4CCC(c5nnc(-c6ccccn6)[nH]5)CC4)cc3)nc2s1` [Example 51, 2-ethyl-5-phenyl-6-(4-{[4-(5-pyridin-2-yl-4H-1,2,4-triazol-3-yl)piperidin-1-yl]methyl}phenyl)imidazo[2,1-b][1,3,4]thiadiazole] was run?
**A.** < 10 µM

**Q.** `Cc1ccn2c(-c3ccccc3)c(-c3ccc(CN4CCC(c5n[nH]c(-c6ccccn6)n5)CC4)cc3)nc2n1` [Example 19, 7-methyl-3-phenyl-2-(4-{[4-(5-pyridin-2-yl-1,2,4-triazol-3-yl)piperidin-1-yl]methyl}phenyl)imidazo[1,2-a]pyrimidine] was tested. Which IC50 did it give?
**A.** < 10 µM

**Q.** With `O=C(O)c1ccn2c(-c3ccccc3)c(-c3ccc(CN4CCC(c5nnc(-c6ccccn6)[nH]5)CC4)cc3)nc2c1` [Example 125, 3-phenyl-2-[4-({4-[5-(pyridin-2-yl)-4H-1,2,4-triazol-3-yl]piperidin-1-yl}methyl)phenyl]imidazo[1,2-a]pyridine-7-carboxylic acid] as the compound, how does the IC50 read?
**A.** > 10 µM

**Q.** Which IC50 does the source give for `c1ccc(-c2c(-c3ccc(CN4CCC(c5n[nH]c(-c6ccccn6)n5)CC4)cc3)nc3ccccn23)cc1` [Example 2, 3-phenyl-2-(4-{[4-(5-pyridin-2-yl-1H-1,2,4-triazol-3-yl)piperidin-1-yl]methyl}phenyl)imidazo[1,2-a]pyridine] here?
**A.** < 10 µM

**Q.** How did the IC50 turn out when `c1ccc(-c2nc(C3CCN(Cc4ccc(-c5nc6ccccn6c5-c5cccs5)cc4)CC3)n[nH]2)nc1` [Example 17, 2-(4-{[4-(5-pyridin-2-yl-1,2,4-triazol-3-yl)piperidin-1-yl]methyl}phenyl)-3-(2-thienyl)imidazo[1,2-a]pyridine] was run?
**A.** < 10 µM

**Q.** Which IC50 does the source give for `c1ccc(-c2c(-c3ccc(CN4CCC(c5n[nH]c(-c6ccccn6)n5)CC4)cc3)nc3ncccn23)cc1` [Example 1, 3-phenyl-2-(4-{[4-(5-pyridin-2-yl-1,2,4-triazol-3-yl)piperidin-1-yl]methyl}phenyl)imidazo[1,2-a]pyrimidine] here?
**A.** > 10 µM

**Q.** With `c1ccc(-c2nc(C3CCN(Cc4ccc(-c5nc6ccccn6c5-c5ccncc5)cc4)CC3)n[nH]2)nc1` [Example 16, 3-pyridin-4-yl-2-(4-{[4-(5-pyridin-2-yl-1,2,4-triazol-3-yl)piperidin-1-yl]methyl}phenyl)imidazo[1,2-a]pyridine] as the compound, how does the IC50 read?
**A.** > 10 µM

**Q.** With `Fc1ccc(-c2c(-c3ccc(CN4CCC(c5n[nH]c(-c6ccccn6)n5)CC4)cc3)nc3ccccn23)cc1` [Example 9, 3-(4-fluorophenyl)-2-(4-{[4-(5-pyridin-2-yl-1,2,4-triazol-3-yl)piperidin-1-yl]methyl}phenyl)imidazo[1,2-a]pyridine] as the compound, how does the IC50 read?
**A.** < 10 µM

**Q.** For `CSc1nn2c(-c3ccccc3)c(-c3ccc(CN4CCC(c5nnc(-c6ccccn6)[nH]5)CC4)cc3)nc2s1` [Example 47, 2-(methylsulfanyl)-5-phenyl-6-[4-({4-[5-(pyridin-2-yl)-4H-1,2,4-triazol-3-yl]piperidin-1-yl}methyl)phenyl]imidazo[2,1-b][1,3,4]thiadiazole], which IC50 is on record?
**A.** > 10 µM

**Q.** `Cc1cccc(-c2nnc(C3CCN(Cc4ccc(-c5nc6ccccn6c5-c5ccccc5)cc4)CC3)[nH]2)n1` [Example 64, 2-[4-({4-[5-(6-methylpyridin-2-yl)-4H-1,2,4-triazol-3-yl]piperidin-1-yl}methyl)phenyl]-3-phenylimidazo[1,2-a]pyridine] was tested. Which IC50 did it give?
**A.** < 10 µM

**Q.** For `c1ccc(-c2c(-c3ccc(CN4CCC(c5nc(-c6cnccn6)no5)CC4)cc3)nc3ncccn23)cc1` [Example 4, 3-phenyl-2-(4-{[4-(3-pyrazin-2-yl-1,2,4-oxadiazol-5-yl)piperidin-1-yl]methyl}phenyl)imidazo[1,2-a]pyrimidine], which IC50 is on record?
**A.** > 10 µM

**Q.** With `Brc1cnc2nc(-c3ccc(CN4CCC(c5n[nH]c(-c6ccccn6)n5)CC4)cc3)c(-c3ccccc3)n2c1` [Example 12, 6-bromo-3-phenyl-2-(4-{[4-(5-pyridin-2-yl-1,2,4-triazol-3-yl)piperidin-1-yl]methyl}phenyl)imidazo[1,2-a]pyrimidine] as the compound, how does the IC50 read?
**A.** < 10 µM

**Q.** With `N#Cc1ccn2c(-c3ccccc3)c(-c3ccc(CN4CCC(c5n[nH]c(-c6ccccn6)n5)CC4)cc3)nc2c1` [Example 29, 3-phenyl-2-(4-{[4-(5-pyridin-2-yl-1,2,4-triazol-3-yl)piperidin-1-yl]methyl}phenyl)imidazo[1,2-a]pyridine-7-carbonitrile] as the compound, how does the IC50 read?
**A.** > 10 µM

Same assay, conditions: read-out: Anti-proliferative/Cytotoxic activity (A549 cells); A549 cells, 72 h, Alamar Blue (Resazurin)

**Q.** Which IC50 does the source give for `c1ccc(-c2c(-c3ccc(CN4CCC(c5nnc(-c6nccs6)[nH]5)CC4)cc3)nc3sccn23)cc1` [Example 87, ′5-phenyl-6-[4-({4-[5-(1,3-thiazol-2-yl)-4H-1,2,4-triazol-3-yl]piperidin-1-yl}methyl)phenyl]imidazo[2,1-b][1,3]thiazole] here?
**A.** < 10 µM

**Q.** `c1ccc(-c2c(-c3ccc(CN4CCC(c5nnc(-c6ccncc6)[nH]5)CC4)cc3)nc3sccn23)cc1` [Example 56, ′5-phenyl-6-(4-{[4-(5-pyridin-4-yl-4H-1,2,4-triazol-3-yl)piperidin-1-yl]methyl}phenyl)imidazo[2,1-b][1,3]thiazole] was tested. Which IC50 did it give?
**A.** < 10 µM

**Q.** With `Cc1ccc(-c2nnc(C3CCN(Cc4ccc(-c5nc6cc(C#N)ccn6c5-c5ccccc5)cc4)CC3)[nH]2)nc1` [Example 72, ′2-[4-({4-[5-(5-methylpyridin-2-yl)-4H-1,2,4-triazol-3-yl]piperidin-1-yl}methyl)phenyl]-3-phenylimidazo[1,2-a]pyridine-7-carbonitrile] as the compound, how does the IC50 read?
**A.** < 10 µM

**Q.** How did the IC50 turn out when `c1ccc(-c2c(-c3ccc(CN4CCC(c5nnc(-c6ncccn6)[nH]5)CC4)cc3)nc3ccccn23)cc1` [Example 80, ′3-phenyl-2-(4-{[4-(5-pyrimidin-2-yl-4H-1,2,4-triazol-3-yl)piperidin-1-yl]methyl}phenyl)imidazo[1,2-a]pyridine] was run?
**A.** > 10 µM

**Q.** How did the IC50 turn out when `Cc1ccc2nc(-c3ccc(CN4CCC(c5nnc(-c6ccc[nH]6)[nH]5)CC4)cc3)c(-c3ccccc3)n2n1` [Example 104, ′6-methyl-3-phenyl-2-[4-({4-[5-(1H-pyrrol-2-yl)-4H-1,2,4-triazol-3-yl]piperidin-1-yl}methyl)phenyl]imidazo[1,2-b]pyridazine] was run?
**A.** < 10 µM

**Q.** `c1ccc(-c2c(-c3ccc(CN4CCC(c5nnc(-c6ncccn6)[nH]5)CC4)cc3)nc3sccn23)cc1` [Example 81, ′5-phenyl-6-(4-{[4-(5-pyrimidin-2-yl-4H-1,2,4-triazol-3-yl)piperidin-1-yl]methyl}phenyl)imidazo[2,1-b][1,3]thiazole] was tested. Which IC50 did it give?
**A.** > 10 µM

**Q.** `c1ccc(-c2c(-c3ccc(CN4CCC(c5nnc(-c6ccco6)[nH]5)CC4)cc3)nc3ccccn23)cc1` [Example 91, ′2-[4-({4-[5-(2-furyl)-4H-1,2,4-triazol-3-yl]piperidin-1-yl}methyl)phenyl]-3-phenylimidazo[1,2-a]pyridine] was tested. Which IC50 did it give?
**A.** < 10 µM

**Q.** Which IC50 does the source give for `c1ccc(-c2c(-c3ccc(CN4CCC(c5nnc(-c6ccco6)[nH]5)CC4)cc3)nc3ncccn23)cc1` [Example 95, ′2-[4-({4-[5-(2-furyl)-4H-1,2,4-triazol-3-yl]piperidin-1-yl}methyl)phenyl]-3-phenylimidazo[1,2-a]pyrimidine] here?
**A.** > 10 µM

**Q.** `N#Cc1cc2nc(-c3ccc(CN4CCC(c5nnc(-c6ccccn6)[nH]5)CC4)cc3)c(-c3ccccc3)n2cc1Br` [Example 52, ′6-bromo-3-phenyl-2-(4-{[4-(5-pyridin-2-yl-4H-1,2,4-triazol-3-yl)piperidin-1-yl]methyl}phenyl)imidazo[1,2-a]pyridine-7-carbonitrile] was tested. Which IC50 did it give?
**A.** > 10 µM

**Q.** Which IC50 does the source give for `c1ccc(-c2c(-c3ccc(CN4CCC(c5n[nH]c(-c6nccs6)n5)CC4)cc3)nc3ncccn23)cc1` [Example 84, ′3-phenyl-2-[4-({4-[5-(1,3-thiazol-2-yl)-1H-1,2,4-triazol-3-yl]piperidin-1-yl}methyl)phenyl]imidazo[1,2-a]pyrimidine] here?
**A.** > 10 µM

**Q.** `c1ccc(-c2c(-c3ccc(CN4CCC(c5nnc(-c6ccc[nH]6)[nH]5)CC4)cc3)nc3scnn23)cc1` [Example 108, ′5-phenyl-6-[4-({4-[5-(1H-pyrrol-2-yl)-4H-1,2,4-triazol-3-yl]piperidin-1-yl}methyl)phenyl]imidazo[2,1-b][1,3,4]thiadiazole] was tested. Which IC50 did it give?
**A.** < 10 µM

**Q.** For `c1ccc(-c2c(-c3ccc(CN4CCC(c5nnc(-c6ccncc6)[nH]5)CC4)cc3)nc3scnn23)cc1` [Example 60, ′5-phenyl-6-(4-{[4-(5-pyridin-4-yl-4H-1,2,4-triazol-3-yl)piperidin-1-yl]methyl}phenyl)imidazo[2,1-b][1,3,4]thiadiazole], which IC50 is on record?
**A.** < 10 µM

**Q.** For `c1ccc(-c2c(-c3ccc(CN4CCC(c5n[nH]c(-c6ccncc6)n5)CC4)cc3)nc3ncccn23)cc1` [Example 55, ′3-phenyl-2-(4-{[4-(5-pyridin-4-yl-1H-1,2,4-triazol-3-yl)piperidin-1-yl]methyl}phenyl)imidazo[1,2-a]pyrimidine], which IC50 is on record?
**A.** > 10 µM

**Q.** How did the IC50 turn out when `c1ccc(-c2c(-c3ccc(CN4CCC(c5nnc(-c6ncccn6)[nH]5)CC4)cc3)nc3scnn23)cc1` [Example 82, ′5-phenyl-6-(4-{[4-(5-pyrimidin-2-yl-4H-1,2,4-triazol-3-yl)piperidin-1-yl]methyl}phenyl)imidazo[2,1-b][1,3,4]thiadiazole] was run?
**A.** < 10 µM
